# From US7598244B2, “[1,2,4]triazolo[1,5,a]pyrimidin-2-ylurea derivative and use thereof” (Nippon Kayaku Kabushiki Kaisha, priority 2003, dated 2009)
# Tests used:
# CD40 = experiment: Expression of antigen-presenting and costimulatory molecules of human peripheral blood-derived dendritic cells: CD40; assay type: cell-based
# Method: (§1) Action on Expression of Antigen-Presenting Molecules and Costimulatory Molecules of Human Peripheral Blood-Derived Dendritic Cells
# (§2) The dendritic cells obtained by the same method as in Test Example 2 were suspended in RPMI 1640 comprising 10% FCS containing 500 U/ml GM-CSF, 50 ng/ml IL-4, and 100 U/ml human recombinant tumor necrosis factor (2.5×10^6 cells/ml). Thereafter, the suspension was inoculated into a 6-well plate at an amount of 2.0 ml/well, and the test compound was then added thereto. The mixture was cultured at 37° C. for 3 days in an incubator containing 5% carbon dioxide. Thereafter, the suspended cells were recovered. The cells were then stained with fluoroisothiocyanate-labeled mouse monoclonal antibodies reacting with MHC class I (Bechman Coulter), CD1a (Immunotech), CD40 (Pharmingen), CD80 (Pharmingen), and CD83 (Immunotech). Thereafter, mean fluorescence intensity and the ratio of positive cells were measured by flow cytometry. The expression level was calculated by the formula “the mean fluorescence intensity x the ratio of positive cells,” and the inhibition rate of the surface antigen expression level of dendritic cells was then obtained by the following formula (8).
# (§3) [formula] • Eexp: Expression level of surface antigens of dendritic cells cultured in the presence of test compound • Cexp: Expression level of surface antigens of dendritic cells cultured in the absence of test compound
# CD80 = experiment: Expression of antigen-presenting and costimulatory molecules of human peripheral blood-derived dendritic cells: CD80; assay type: cell-based
# Method: as §1, §2, §3
# [1] = system: MHC class I molecules of human peripheral blood-derived dendritic cells; experiment: Effect on expression of MHC class I molecules from human peripheral blood-derived dendritic cells; assay type: cell-based; details: dendritic cells matured with TNF-α, 3 days; read-out: EC50 (reduction of 50% of the number of cells wherein MHC class I molecules were highly expressed)
# How it was run: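 Human blood CD14+ monocytes differentiated 7 days with GM-CSF 500 U/ml and IL-4 50 ng/ml into immature dendritic cells. These were matured with 100 U/ml TNF-α plus test compound for 3 days at 37 °C. MHC class I-high fraction measured by flow cytometry (W6/32 antibody); EC50 is concentration giving 50% reduction versus untreated.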
# BALB/c mice = experiment: Effect on mouse delayed-type hypersensitivity reaction (DTH reaction), swelling of the sole; assay type: in vivo; details: Oral
# Method: Effect on Mouse Delayed-Type Hypersensitivity Reaction (DTH Reaction)
# 1.0×10^5 sheep erythrocytes (Nippon Seibutsu Zairyo Center, Co., Ltd.) were administered to each of BALB/c mice (Charles River Japan, Inc.; female; 8-week-old) by intravenous injection for sensitization. From the day of administration of the sheep erythrocytes, a test compound was administered to the mouse. As a control, a 0.5% carboxymethyl cellulose (CMC)-Na solution and a normal saline solution used as solvents were administered to the same type of mouse via oral administration or intraperitoneal administration. Five days after the antigen sensitization, 1.0×10^8 sheep erythrocytes were subcutaneously injected into the sole of the mouse. 24 hours later, the thickness of the sole was measured. The value obtained by subtracting the mean value of the thicknesses of the soles of mice, to which a normal saline solution had been administered instead of the sheep erythrocytes, from the above measurement value, was defined as swelling of the sole generated as a result of the DTH reaction. The inhibition rate of the swelling of the sole caused by the DTH reaction was calculated using the following formula (5). The amount of the test compound necessary for inhibition of 50% (ED50 value) was obtained as the activity of the test compound to inhibit the DTH reaction. It is to be noted that cyclosporin A was used as a positive control.
# [formula] • Eexp: Swelling of sole of mouse to which test compound was administered • Cexp: Swelling of sole of mouse to which solvent was administered
smiles,measurement,setting,value
"CC(C)NC(=O)Nc1nc2nccc(-c3cccs3)n2n1 [Example 029, 1-isopropyl-3-(7-thiophen-2-yl[1,2,4]triazolo[1,5-a]pyrimidin-2-yl)urea]","Expression inhibition rate by test compound (%), CD40","CD40; Analyte 1, 3 days",10.8%
same,"Expression inhibition rate by test compound (%), CD40","CD40; Analyte 2, 3 days",−5.4%
same,"Expression inhibition rate by test compound (%), CD40","CD40; Analyte 3, 3 days",12.9%
same,"Expression inhibition rate by test compound (%), CD80","CD80; Analyte 1, 3 days",83.8%
same,"Expression inhibition rate by test compound (%), CD80","CD80; Analyte 2, 3 days",12.1%
same,"Expression inhibition rate by test compound (%), CD80","CD80; Analyte 3, 3 days",26.8%
same,EC50,[1],480 nM
same,Inhibition rate (%) of swelling of the sole,"BALB/c mice; administration period 7 days, 50 mg/kg/single administration",37.0%
same,Inhibition rate (%) of swelling of the sole,"BALB/c mice; administration period 7 days, 100 mg/kg/single administration",49.5%
same,Inhibition rate (%) of swelling of the sole,"BALB/c mice; administration period 8 days, 50 × 2 (50 mg/kg, twice a day)",80.0%
